Counter-ions that a name gives are not always drawn. Like-named read-outs stand apart in the source and are kept apart here.
Columns and labels:
[1] = tested on: IAV M gene; assay type: cell-based, influenza A virus
[2] = tested on: TNF-α; assay: ELISA cytokine protein quantification, TNF-α; assay type: cell-based, Canine
Experimental: (§1) MDCK cells were treated as mentioned above. Untreated cells were considered as the negative control. Cell-free supernatant was harvested following 72 h infection period and stored at − 80 °C for the cytokine analysis. In order to investigate the effect of viral infection and anionic compounds on the production of inflammatory cytokines such as IL-6, CCL2 and TNF-α as well as anti-inflammatory cytokine proteins IFN-β1 and IL-27, ELISA method was utilized. Quantitative sandwich Picokine ELISA kits (Boster Biological Technology, CA, USA) were used to detect IL-6, TNF-α and IL-27 cytokine proteins according to the manufacturer's instructions. The CCL2 and IFN-β were evaluated by sandwich Ready-SET-Go kit (Invitrogen, USA) and sandwich geneILNB1 kit (EIAab Science Co, China) according to the manufacturers’ instructions, respectively. The concentrations of the cytokines were calculated according to the corresponding reaction standard formula.
(§2) The cytokine protein levels in supernatants of MDCK cell culture at 72 h after exposure were calculated according to the reaction standard formula.
(§3) To calculate the concentration of the cytokines in cell free supernatants, firstly, the standards optical densities were measured and the standard curves were plotted. The equations of standard curves were used to estimate protein concentration in the samples.

[3] = tested on: IL-6; assay: ELISA cytokine protein quantification, IL-6; assay type: cell-based, Canine
Experimental: as §1, §2, §3

[4] = tested on: CCL2; assay: ELISA cytokine protein quantification, CCL2; assay type: cell-based, Canine
Experimental: as §1, §2, §3

[5] = tested on: IL-27; assay: ELISA cytokine protein quantification, IL-27; assay type: cell-based, Canine
Experimental: as §1, §2, §3

[6] = tested on: IFN- β; assay: ELISA cytokine protein quantification, IFN-β; assay type: cell-based, Canine
Experimental: as §1, §2, §3

[7] = MTT cytotoxicity assay of the compounds (CC50, NCTC, selectivity index); conditions: dog
Experimental: (§4) The cytotoxic effects of the anionic compounds on the viability of MDCK cells was measured by MTT [3-(4, 5-dimethylthiazol-2ol) 2, 5 diphenyl tetrazolium bromide] assay. Briefly, the confluent 96-well plate of MDCK cells were exposed to twofold serial dilutions of the compounds (in triplicates), 100 μl/well, and incubated for 48 h. After the incubation period, the supernatants were removed and 100 μl of 1X MTT solution (100 μl/well) was added to each well. The plates were incubated for 4 h at 37 °C. Then, 100 μl of DMSO (Samchun, Korea) was added to dissolve formazan crystals. Color adsorption in the solution was measured using an enzyme-linked immunosorbent assay (ELISA) reader (StataFax 2100, USA) at 570 nm to calculate the 50% cytotoxic concentration (CC50). The cells without treatment were used as negative control. The percentage of toxicity was calculated using the following formula:
(§5) Toxicity (%) = [100 − (ODT/ODC) × 100], where ODT and ODC refer to the absorbance of the test substance and control, respectively [34]. The 50% cytotoxic concentration (CC50) was defined as the cytotoxic concentration of compounds by regression analysis.
(§6) The non-cytotoxic concentration (NCTC) of the compounds was also determined using the same procedure and used for the antiviral assays. […] The cells with no treatment were considered as negative control.
(§7) The selectivity index (SI) is relative safety of a compound and it was obtained by dividing CC50 by NCTC in the same units.

[8] = tested on: MDCK cells; assay: as above; conditions: MDCK cells, MTT, 48 h
Experimental: as §4, §5, §6, §7

[9] = tested on: TNF-α; assay type: cell-based, Canine; conditions: combination treatment (co-penetration) with H1N1, 72 h; H1N1 alone 191.00 fold
[10] = tested on: IL-6; assay type: cell-based, Canine; conditions: combination treatment (co-penetration) with H1N1, 72 h; H1N1 alone 16.622 fold
[11] = tested on: CCL2; assay type: cell-based, Canine; conditions: combination treatment (co-penetration) with H1N1, 72 h; H1N1 alone 22.123 fold
[12] = tested on: IL-27; assay type: cell-based, Canine; conditions: combination treatment (co-penetration) with H1N1, 72 h; H1N1 alone 0.004 fold
[13] = tested on: IFN-β1; assay type: cell-based, Canine; conditions: combination treatment (co-penetration) with H1N1, 72 h; H1N1 alone 0.038 fold
[14] = co-penetration with H1N1, MDCK supernatant, 72 h, H1N1 alone 523.00 ± 2.41
[15] = co-penetration with H1N1, MDCK supernatant, 72 h, H1N1 alone 1243.79 ± 5.58
[16] = co-penetration with H1N1, MDCK supernatant, 72 h, H1N1 alone 941.67 ± 4.71
[17] = co-penetration with H1N1, MDCK supernatant, 72 h, H1N1 alone 26.25 ± 1.77

O=C1O[C@H]([C@@H](O)CO)C(O)=C1O [Ascorbate, ascorbic acid]
Ct value, IAV M gene ([1]; combination treatment with H1N1, supernatants of 48 h treatments, H1N1 alone 12.76 ± 0.24): No Ct value was detected
TNF-α cytokine protein concentration (mean ± SD) [2, 14]: 284.25 ± 0.32 pg/mL
IL-6 cytokine protein concentration (mean ± SD) ([3]; co-penetration with H1N1, MDCK supernatant, 72 h, H1N1 alone 171.78 ± 0.17): 38.05 ± 0.17 pg/mL
CCL2 cytokine protein concentration (mean ± SD) [4, 15]: 309.05 ± 1.86 pg/mL
CCL2 cytokine protein concentration (mean ± SD) ([4]; co-penetration with H1N1, MDCK supernatant, 72 h, H1N1 alone 1243.79 ± 5.58, listed as Asc): 309.05 ± 1.86 pg/mL
IL-27 cytokine protein concentration (mean ± SD) [5, 16]: 1833.33 ± 2.36 pg/mL
IFN- β cytokine protein concentration (mean ± SD) [6, 17]: 73.75 ± 1.77 pg/mL
IFN- β cytokine protein concentration (mean ± SD) ([6]; co-penetration with H1N1, MDCK supernatant, 72 h, H1N1 alone 26.25 ± 1.77, listed as Asc): 73.75 ± 1.77 pg/mL

NC12CC3CC(CC(C3)C1)C2 [Amantadine hydrochloride, reference compound]
CC50 at 48 h [7]: 200 ± 1530 µg/mL
NCTC (non-cytotoxic concentration) [8]: 0.10 ± 0.00 mg/mL

CC(=O)[O-].[Na+] [Acetate, sodium acetate]
Ct value, IAV M gene [1]: 20.70 ± 0.30
TNF-α relative expression [9]: 4.83 fold
IL-6 relative expression [10]: 0.020 fold
CCL2 relative expression [11]: 0.094 fold
IL-27 relative expression [12]: 0.099 fold
IFN- β1 relative expression [13]: 0.049 fold
TNF-α cytokine protein concentration (mean ± SD) [2]: 222.20 ± 0.64 pg/mL
percentage of change of TNF-α protein relative to H1N1 (mean ± SD) ([2]; co-penetration, 72 h): -57.51 ± 0.32
IL-6 cytokine protein concentration (mean ± SD) [3]: 110.64 ± 0.08 pg/mL
CCL2 cytokine protein concentration (mean ± SD) [4]: 338.26 ± 0.00 pg/mL
percentage of change of CCL2 protein relative to H1N1 (mean ± SD) ([4]; co-penetration, 72 h): -72.80 ± 0.12
IL-27 cytokine protein concentration (mean ± SD) [5]: 1938.33 ± 0.00 pg/mL
percentage of change of IL-27 protein relative to H1N1 (mean ± SD) ([5]; co-penetration, 72 h): 105.84 ± 1.03
IFN- β cytokine protein concentration (mean ± SD) [6]: 68.96 ± 2.06 pg/mL
percentage of change of IFN- β protein relative to H1N1 (mean ± SD) ([6]; co-penetration, 72 h): 163.03 ± 9.86
CC50 [8]: 28950 ± 4320 µg/mL
NCTC (non-cytotoxic concentration) [8]: 3.00 ± 0.00 mg/mL
NCTC (non-cytotoxic concentration) ([8]; listed as acetate): 3 mg/mL

O=C(O)CC(O)(CC(=O)O)C(=O)O [Citrate, sodium citrate]
Ct value, IAV M gene [1]: 22.45 ± 0.75
TNF-α cytokine protein concentration (mean ± SD) [2, 14]: 253.45 ± 0.48 pg/mL
IL-6 cytokine protein concentration (mean ± SD) ([3]; co-penetration with H1N1, MDCK supernatant, 72 h, H1N1 alone 171.78 ± 0.17, listed as Cit): 126.60 ± 0.17 pg/mL
CCL2 cytokine protein concentration (mean ± SD) [4, 15]: 446.95 ± 0.37 pg/mL
IL-27 cytokine protein concentration (mean ± SD) [5, 16]: 2055.00 ± 0.00 pg/mL
IL-27 cytokine protein concentration (mean ± SD) ([5]; co-penetration with H1N1, MDCK supernatant, 72 h, H1N1 alone 941.67 ± 4.71, listed as Cit): 2055.00 ± 0.00 pg/mL
IFN- β cytokine protein concentration (mean ± SD) [6, 17]: 70.62 ± 2.06 pg/mL
NCTC (non-cytotoxic concentration) [8]: 3.00 ± 0.00 mg/mL
NCTC (non-cytotoxic concentration) ([8]; listed as citrate): 3 mg/mL
